# According to ChEMBL document CHEMBL1130590, “Aryl sulfonamides as selective PDE4 inhibitors” (Bioorg Med Chem Lett, 1998):
# What was measured:
# Phosphodiesterase 4 [1] = molecular target: T1, Phosphodiesterase 4 (Homo sapiens, UniProt P27815+Q08499+Q07343+Q08493); experiment: Binding activity towards Rolipram binding site of phosphodiesterase 4; type: protein assay
# Phosphodiesterase 4 [2] = molecular target: T1, Phosphodiesterase 4; experiment: In vitro binding activity towards catalytic site of phosphodiesterase 4; type: protein assay
# Phosphodiesterase 4 [3] = molecular target: T1, Phosphodiesterase 4; experiment: Ratio of binding activity at catalytic site to Rolipram binding site of PDE4; type: protein assay
# Phosphodiesterase 4 [4] = molecular target: T1, Phosphodiesterase 4; experiment: Binding activity towards Rolipram binding site of phosphodiesterase 4 at concentration 10 uM; type: protein assay
# Phosphodiesterase 4 [5] = molecular target: T1, Phosphodiesterase 4; experiment: Inhibition of phosphodiesterase 4; type: protein assay
# Phosphodiesterase 4 [6] = molecular target: T1, Phosphodiesterase 4; experiment: Inhibition of Rolipram binding to phosphodiesterase 4 at 100 uM; type: protein assay
# Phosphodiesterase 4 [7] = molecular target: T1, Phosphodiesterase 4; experiment: Inhibition of phosphodiesterase 4 at 200 uM; type: protein assay
# Phosphodiesterase 1 [8] = molecular target: T2, Phosphodiesterase 1 (Homo sapiens, UniProt P54750+Q01064+Q14123); experiment: Inhibition of phosphodiesterase 1 at 20 uM; type: protein assay
# [9] = molecular target: Phosphodiesterase 3 (Homo sapiens) (UniProt Q14432+Q13370); experiment: Inhibition of phosphodiesterase 3 at 200 uM; type: protein assay
# [10] = molecular target: cGMP-dependent 3',5'-cyclic phosphodiesterase (Homo sapiens) (UniProt O00408); details: 200 uM
# Phosphodiesterase 4 [11] = molecular target: T1, Phosphodiesterase 4; experiment: Inhibition of Rolipram binding to phosphodiesterase 4; type: protein assay; details: concentration not given here
# Phosphodiesterase 4 [12] = molecular target: T1, Phosphodiesterase 4; experiment: Inhibition of phosphodiesterase 4 at 20 uM; type: protein assay
# [13] = molecular target: cGMP-dependent 3',5'-cyclic phosphodiesterase (Homo sapiens) (UniProt O00408); experiment: Inhibition of phosphodiesterase 2 at 200 uM
# Phosphodiesterase 1 [14] = molecular target: T2, Phosphodiesterase 1; experiment: Inhibition of phosphodiesterase 1 at 200 uM; type: protein assay
# [15] = molecular target: cGMP-specific 3',5'-cyclic phosphodiesterase (Homo sapiens) (UniProt O76074); experiment: Inhibition of phosphodiesterase 5 at 200 uM
# Phosphodiesterase 4 [16] = molecular target: T1, Phosphodiesterase 4; experiment: Inhibition of Rolipram binding to phosphodiesterase 4 at 20 uM; type: protein assay
# Phosphodiesterase 4 [17] = molecular target: T1, Phosphodiesterase 4; experiment: Inhibition of Rolipram binding to phosphodiesterase 4 at 1 uM; type: protein assay
# Sequence of cGMP-dependent 3',5'-cyclic phosphodiesterase (Homo sapiens) (O00408 whole entry): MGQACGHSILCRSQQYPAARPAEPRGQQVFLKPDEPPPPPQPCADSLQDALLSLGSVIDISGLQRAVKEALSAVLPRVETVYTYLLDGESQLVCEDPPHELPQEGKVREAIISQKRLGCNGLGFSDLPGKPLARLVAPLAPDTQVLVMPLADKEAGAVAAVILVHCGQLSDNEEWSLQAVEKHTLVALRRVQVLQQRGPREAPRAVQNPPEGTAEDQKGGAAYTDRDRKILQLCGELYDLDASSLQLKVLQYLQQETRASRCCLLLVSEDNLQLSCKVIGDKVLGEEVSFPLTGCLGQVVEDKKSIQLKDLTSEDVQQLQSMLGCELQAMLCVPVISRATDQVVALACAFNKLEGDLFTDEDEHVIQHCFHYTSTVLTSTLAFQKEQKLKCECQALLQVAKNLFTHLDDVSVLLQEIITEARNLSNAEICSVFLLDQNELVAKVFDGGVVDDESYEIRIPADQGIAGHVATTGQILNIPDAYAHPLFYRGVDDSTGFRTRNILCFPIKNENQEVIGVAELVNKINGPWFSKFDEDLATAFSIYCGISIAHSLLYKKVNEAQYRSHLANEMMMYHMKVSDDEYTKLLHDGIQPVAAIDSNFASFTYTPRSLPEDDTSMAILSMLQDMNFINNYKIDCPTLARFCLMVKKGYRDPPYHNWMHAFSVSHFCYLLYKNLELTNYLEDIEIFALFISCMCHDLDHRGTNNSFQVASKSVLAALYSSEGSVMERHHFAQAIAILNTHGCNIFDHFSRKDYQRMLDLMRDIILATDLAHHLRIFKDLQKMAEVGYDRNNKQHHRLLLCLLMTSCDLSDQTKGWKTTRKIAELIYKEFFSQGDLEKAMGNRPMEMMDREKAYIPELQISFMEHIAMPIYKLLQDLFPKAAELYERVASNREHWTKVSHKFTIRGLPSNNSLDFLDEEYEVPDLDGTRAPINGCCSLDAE
IC50 (Phosphodiesterase 4 [1]),IC50 (Phosphodiesterase 4 [2]),Ratio (Phosphodiesterase 4 [3]),inhibition (Phosphodiesterase 4 [4]),Structure (SMILES),other results
24 µM,3 µM,0.13,,COc1ccc(S(=O)(=O)N(Cc2cccnc2)S(=O)(=O)CCNS(=O)(=O)c2ccccc2)cc1OC,
,5.2 µM,< 0.5,12%,COc1ccc(S(=O)(=O)NC2CCc3cc(Cl)ccc32)cc1OC (stereo unspecified),
,7.8 µM,< 0.7,5%,COc1ccc(S(=O)(=O)N(Cc2ccccc2)Cc2ccccn2)cc1OC,
,9 µM,< 0.9,20%,COc1ccc(S(=O)(=O)N(Cc2cccnc2)C2CCc3ccccc32)cc1OC (stereo unspecified),
,,,14%,COc1ccc(S(=O)(=O)n2c(=O)cc(-c3ccccc3)c3ccccc32)cc1OC,IC50 (Phosphodiesterase 4 [5]): 0.5 µM
,,,,COc1ccc(S(=O)(=O)NCc2cccnc2)cc1OC,inhibition (Phosphodiesterase 4 [6]): 41%; inhibition (Phosphodiesterase 4 [7]): 39%
112 µM,19 µM,0.17,,COc1ccc(S(=O)(=O)N(CCC#N)CC2CCCO2)cc1OC (stereo unspecified),
35 µM,24 µM,0.69,,COc1ccc(S(=O)(=O)N(CC(C)=O)Cc2ccco2)cc1OC,
4.3 µM,1.9 µM,0.44,,CCCN(Cc1ccc(C(=O)NC)cc1)S(=O)(=O)c1ccc(OC)c(OC)c1,
,4.1 µM,< 0.4,26%,COc1ccc(S(=O)(=O)N(CCC#N)C2CCc3ccccc32)cc1OC (stereo unspecified),
,,,,COc1ccc(C2CNC(=O)C2)cc1OC1CCCC1 (stereo unspecified) [ROLIPRAM],IC50 (Phosphodiesterase 1 [8]): > 200 µM; inhibition [9]: 27%; inhibition [10]: 28%
,2.5 µM,< 0.25,2%,COc1ccc2c(c1)C(NS(=O)(=O)c1ccc(OC)c(OC)c1)CC2 (stereo unspecified),
,,,31%,COc1ccc(S(=O)(=O)n2c(-c3ccccc3)cc3ccccc3c2=O)cc1OC,IC50 (Phosphodiesterase 4 [5]): 0.6 µM
,10 µM,< 1,,COC(=O)CN(Cc1ccco1)S(=O)(=O)c1ccc(OC)c(OC)c1,inhibition (Phosphodiesterase 4 [6]): 23%
15 µM,1.5 µM,0.1,,CCCN(Cc1ccco1)S(=O)(=O)c1ccc(OC)c(OC)c1,
,5 µM,< 1,,COc1ccc(S(=O)(=O)N(Cc2ccccc2)Cc2cccnc2)cc1OC,inhibition (Phosphodiesterase 4 [11]): 8%
10 µM,,> 1,,COc1ccc(S(=O)(=O)N(CCC#N)Cc2ccco2)cc1OC1CCCC1,inhibition (Phosphodiesterase 4 [12]): 32%

IC50 (Phosphodiesterase 4 [1]),IC50 (Phosphodiesterase 4 [2]),Ratio (Phosphodiesterase 4 [3]),inhibition (Phosphodiesterase 4 [4]),Structure (SMILES),other results
,6 µM,< 0.6,12%,COc1ccc(S(=O)(=O)NC2CCc3ccccc32)cc1OC (stereo unspecified),
50 µM,,,,COc1ccc(S(=O)(=O)NCCC#N)cc1OC,IC50 (Phosphodiesterase 4 [5]): 17.6 µM
3 µM,11 µM,3.7,,COc1ccc(C(=O)NC2CCc3ccccc32)cc1OC (stereo unspecified),inhibition [13]: 37%; inhibition (Phosphodiesterase 1 [14]): 14%; inhibition [9]: 53%; inhibition [15]: 24%
4.5 µM,2 µM,0.44,,COc1ccc(S(=O)(=O)N(Cc2cccnc2)S(C)(=O)=O)cc1OC1CCCC1,
,,,,COc1ccc(S(=O)(=O)n2ccc3ccccc3c2=O)cc1OC,IC50 (Phosphodiesterase 4 [16]): 4 µM; IC50 (Phosphodiesterase 4 [5]): 0.5 µM
,,> 1,36%,COc1ccc(S(=O)(=O)N(CC#N)Cc2ccco2)cc1OC,inhibition (Phosphodiesterase 4 [12]): 30%
,6.4 µM,< 0.6,30%,COc1ccc(S(=O)(=O)N(CCC#N)C2CCCc3ccccc32)cc1OC (stereo unspecified),
,5.3 µM,< 0.5,12%,COc1ccc(S(=O)(=O)N(Cc2ccccn2)C2CCc3ccccc32)cc1OC (stereo unspecified),
,10 µM,< 1,37%,COc1ccc(S(=O)(=O)N(CCC#N)Cc2ccco2)cc1OC,
,4.3 µM,< 0.43,18%,COc1ccc(S(=O)(=O)N2CCc3ccccc32)cc1OC,
,1.5 µM,< 1,,COc1ccc(S(=O)(=O)N(Cc2cccnc2)S(C)(=O)=O)cc1OCCCCCc1ccccc1,inhibition (Phosphodiesterase 4 [17]): 18%
,,,20%,COc1ccc(S(=O)(=O)n2c(-c3ccccc3)cc3ncccc3c2=O)cc1OC,IC50 (Phosphodiesterase 4 [5]): 1.5 µM
,20 µM,< 1,15%,COc1ccc(C(=O)N2CCCc3ccccc32)cc1OC,inhibition [13]: 21%; inhibition (Phosphodiesterase 1 [14]): 14%; inhibition [9]: 31%; inhibition [15]: 12%
,100 µM,< 1,,COc1ccc(S(=O)(=O)NC2CCCC2)cc1OC,inhibition (Phosphodiesterase 4 [6]): 19%
50 µM,6 µM,0.12,,COc1ccc(S(=O)(=O)N(Cc2cccnc2)S(C)(=O)=O)cc1OC,
,9 µM,< 1,37%,COc1ccc(S(=O)(=O)N(CCCC#N)Cc2ccco2)cc1OC,
